From patent US9958451B2, “Near-infrared fluorescent dyes with large stokes shifts” (Portland State University, priority 2011, dated 2018)
Values joined by “and” are separate entries in the source; they are usually repeats but may differ in a detail not shown here. Equal entries are not always repeated. Marks after values point to notes of the source that are not given here.

Key:
[1] = Spectral properties of rhodamine bis-boronic acids and precursors in DMSO:buffer; format: physicochemical; parameters: Brightness: scale not given here; details: for Quenching of emission (PET) of the free boronic acid: DMSO buffer 1:9
Method: Characterization: The spectral properties of compounds 50-53 were determined. Absorption and fluorescence spectra of solutions of the rhodamine bis-boronic acids 51 and 53, and their respective precursors 50 and 52, are shown in FIGS. 27A-C (in DMSO:buffer 1:9) and 27D-F (DMSO:buffer 1:1). […] Excitation and emission spectra were normalized to their absorbance at the excitation wavelength, and are proportional to quantum yield.

[2] = Saccharide sensing, response to ribose; details: DMSO:buffer 1:1, entire concentration range
Method: (§1) Solvents including MeCN, MeOH, EtOH, DMSO and buffer were initially screened for sugar sensing. […] DMSO mixtures were chosen for further studies.
(§2) The final pH 7.4 phosphate buffer concentration was 12.5 mM.

[3] = Saccharide sensing, response to fructose
Method: as §1, §2

[4] = Quantum yield in 10:90 DMSO:aqueous solutions; format: physicochemical; details: aqueous solution
Method: The quantum yield of yellow-orange emitting 16a was 0.4649, 40 times greater than the corresponding neutral compound 15a. It was slightly higher than the yellow-green emitting neutral compound 20a, and >2 times higher than orange-red emitting anion 20c. The compounds (7.5 μM) were analyzed in 10:90 DMSO:aqueous solutions. Fluorescence emission was readily visible in a darkened room when the solutions were excited from below with 3-watt megaMAX 505 nm ALS system. The emission-enhancing properties afforded through the combination of the 3-1 transposition and methylation is in contrast to previously reported methyl ethers of seminaphthofluorescein compounds.

[5] = UV-visible absorbance spectroscopy, 15 μM in 90% aqueous, 10% DMSO; format: physicochemical; details: 90% aqueous 10% DMSO
Method: Compounds 21 and 7 were characterized by UV-visible spectroscopy (FIG. 15). Absorbance was measured using 15 μM solutions of each compound in a solution that was 90% aqueous, 10% DMSO. The peaks at 600 nm (light dashed line) and 675 nm (light solid line) represent the dianions of compounds 21 and 7, respectively, in NaOH (pH 12). The peaks at 590 nm (heavy dashed line) and 650 nm (heavy solid line) represent a mix of mono- and dianions of compound 21 at pH 7.4 and predominantly monoanions of compound 7 at pH 9, respectively.
Compounds 22 and 8 were characterized by UV-visible spectroscopy (FIG. 16). Absorbance was measured using 15 μM solutions of each compound in a solution that was 90% aqueous, 10% DMSO. The peaks at 610 nm (light dashed line) and 685 nm (light solid line) represent the anions of compounds 22 and 8, respectively, in NaOH (pH 12). The peaks at 605 nm (heavy dashed line) and 805 nm (heavy solid line) represent the neutral forms of compounds 22 and 8 at pH 7.4, respectively.
Compounds 20a and 15a were characterized by UV-visible spectroscopy (FIG. 17). Absorbance was measured using 15 μM solutions of each compound in a solution that was 90% aqueous, 10% DMSO. The peaks at 545 nm (light dashed line) and 595 nm (light solid line) represent the respective anions, compounds 20c and 15h, in NaOH (pH 12).
Compound 15b (free amino) was characterized by UV-visible spectroscopy (FIG. 18), and compared to C.SNARF-5 (literature, SNARF=seminaphthorhodafluor). Absorbance was measured using a 15 μM solution of compound 15b in a solution that was 90% aqueous, 10% DMSO. The peak at 535 nm (heavy line) represents the predominantly phenolic form of 15b at pH 6. The peak at 615 nm (light line) represents the phenoxide of compound 15b at in NaOH (pH12). In comparison, C.SNARF-5 produces a peak at 550 nm (anionic form) and a peak at 485 nm (neutral form) (Whitaker et al., Anal. Biochem. 1991, 194, 330-344).
Absorbance was measured using 15 μM solutions of compound 15d in a solution that was 90% aqueous, 10% DMSO. The peak at 570 nm (heavy line) represents the predominantly neutral form of 15d at pH 6. The peak at 630 nm (light line) represents the phenoxide of compound 15d in NaOH (pH 12).
Compounds 20b and 15g were characterized by UV-visible spectroscopy (FIG. 20). Absorbance was measured using 15 μM solutions of each compound in a solution that was 90% aqueous, 10% DMSO. The peaks at 540 nm (dashed line) and 570 nm (solid line) represent the cations of compounds 20b and 15g, respectively, at pH 7.4.

[6] = Fluorescence emission spectra, 15 μM in 90% aqueous, 10% DMSO; format: physicochemical
Method: Compounds 21 and 7 also were characterized by their fluorescence emission spectra. Fluorescence was measured using 15 μM solutions of each compound in a solution that was 90% aqueous, 10% DMSO. For compound 21, the longest wavelength emission observed from the dianions occurred near 680 nm at pH 9. For compound 7 (transposed), the longest wavelength emission observed from the monoanion occurred near 800 nm at pH 9.
Compounds 22 and 8 also were characterized by their fluorescence emission spectra. Fluorescence was measured using 15 μM solutions of each compound in a solution that was 90% aqueous, 10% DMSO For compound 22, the longest wavelength emission observed from the anion occurred near 690 nm at pH 9. […] Given the greater than 800 nm absorbance peak and the typically large Stokes shifts observed in this class of compounds, it is likely that the emission was beyond the working range of the instrument (>850 nm).
Compounds 20 and 15a also were characterized by their fluorescence emission spectra. Fluorescence was measured using 15 μM solutions of each compound in a solution that was 90% aqueous, 10% DMSO. For compound 20a, the longest wavelength emission observed from its corresponding anion, compound 20c, occurred near 640 nm in NaOH (pH 12). For compound 15a (transposed), the longest wavelength emission observed from the corresponding anion, compound 15h, occurred near 760 nm in NaOH.
Compound 15b also was characterized by its fluorescence emission spectrum and compared to C.SNARF-5. Fluorescence was measured using a 15 μM solution of compound 15b in a solution that was 90% aqueous, 10% DMSO. For C.SNARF-5, the longest wavelength emission observed from the anion occurred near 632 nm (Whitaker et al., Anal. Biochem. 1991, 194, 330-344). For compound 15b (transposed), the longest wavelength emission observed from the phenoxide occurred near 770 nm.
Fluorescence was measured using a 15 μM solution of compound 15d in a solution that was 90% aqueous, 10% DMSO. […] For compound 15d (transposed), the longest wavelength emission observed from the phenoxide occurred near 780 nm (NaOH, pH 12).
Compounds 20b and 15g also were characterized by their fluorescence emission spectra. Fluorescence was measured using 15 μM solutions of each compound in a solution that was 90% aqueous, 10% DMSO. For compound 20b, the longest wavelength emission observed from the cation occurred near 640 nm at pH 7.4. For compound 15g (transposed), the longest wavelength emission observed from the cation occurred near 770 nm at pH 7.4.

[7] = DMSO:buffer 1:1, pH 7.4 phosphate buffer 12.5 mM
[8] = DMSO:buffer 1:9, pH 7.4 phosphate buffer 12.5 mM

Quenching of emission (PET) of the free boronic acid [1]	Brightness ([1]; DMSO:buffer 1:1)	Em ([1]; DMSO:buffer 1:1)	Ex ([1]; DMSO:buffer 1:1)	Q.Y. ([1]; DMSO:buffer 1:1)	ε ([1]; DMSO:buffer 1:1)	Abs [1, 7]	Brightness ([1]; DMSO:buffer 1:9)	Em ([1]; DMSO:buffer 1:9)	Ex ([1]; DMSO:buffer 1:9)	Q.Y. ([1]; DMSO:buffer 1:9)	ε ([1]; DMSO:buffer 1:9)	Abs [1, 8]	SMILES	other results
slightly quenched	8037	643 nm	580 nm	0.35	23096 M⁻¹ cm⁻¹	579 nm	3032^e	638 nm	568 nm	0.15	20326 M⁻¹ cm⁻¹	560 nm	O=C(O)c1ccccc1-c1c2ccc(=NCc3ccccc3B(O)O)cc-2oc2c1ccc1cc(NCc3ccccc3B(O)O)ccc12 [Compound 51, seminaphthorhodamine bis-boronic acid]	Increase in absorbance [2]: approximately 1.5 fold; Increase in fluorescence [2]: approximately 1.5 fold
nearly completely quenched	292^g	700 nm	624 nm	0.18	1616 M⁻¹ cm⁻¹	616 nm	43^d,f	692 nm	612 nm	0.004	10759 M⁻¹ cm⁻¹	628 nm	O=C(O)c1ccccc1-c1c2ccc3cc(NCc4ccccc4B(O)O)ccc3c2oc2c1ccc1cc(=NCc3ccccc3B(O)O)ccc12 [Compound 53, naphthorhodamine bis-boronic acid]	Estimated quantum yield after binding ([3]; DMSO:buffer 1:9): 0.186; Increase in absorbance at 630 nm ([3]; DMSO:buffer 1:9, highest concentration of fructose): less than 3 fold
–	–	–	–	–	–	–	–	–	–	–	–	–	COC(=O)c1ccccc1-c1c2ccc(=O)cc-2oc2c1ccc1cccc(O)c12 [Compound 15h]	Quantum yield [4]: less than 1%; Red shift of absorption spectra from 3-1 transposition versus known regiochemistry ([5]; depending on the ionization state): 50 nm; Absorbance peak ([5]; NaOH (pH 12), anionic/phenoxide form): 595 nm and 599 nm; Enhancement of the Stokes shift by 3-1 transposition [6]: about 70 nm; Longest wavelength emission ([6]; NaOH (pH 12), anion/phenoxide): 760 nm
